One series deals with HDAC4 (Homo sapiens, UniProt P56524). Nature of the series: HDAC4 fluorogenic activity assay (BPS Bioscience kit). Particulars: for relative percent activity of HDAC4 (activity retained): 100 μM compound, compared to absence of inhibitor; for IC50 fold lower for HDAC4 than HDAC3: selectivity HDAC4 over HDAC3 from IC50 values.
The next series deals with HDAC3 (Homo sapiens, UniProt O15379). Nature of the series: HDAC3 fluorogenic activity assay (BPS Bioscience kit). Particulars: for relative percent activity of HDAC3 (activity retained) / decrease of HDAC3 activity: 100 μM compound; for relative percent activity of HDAC3 (activity retained): compared to absence of inhibitor.
Sequence of HDAC3 (O15379 whole entry): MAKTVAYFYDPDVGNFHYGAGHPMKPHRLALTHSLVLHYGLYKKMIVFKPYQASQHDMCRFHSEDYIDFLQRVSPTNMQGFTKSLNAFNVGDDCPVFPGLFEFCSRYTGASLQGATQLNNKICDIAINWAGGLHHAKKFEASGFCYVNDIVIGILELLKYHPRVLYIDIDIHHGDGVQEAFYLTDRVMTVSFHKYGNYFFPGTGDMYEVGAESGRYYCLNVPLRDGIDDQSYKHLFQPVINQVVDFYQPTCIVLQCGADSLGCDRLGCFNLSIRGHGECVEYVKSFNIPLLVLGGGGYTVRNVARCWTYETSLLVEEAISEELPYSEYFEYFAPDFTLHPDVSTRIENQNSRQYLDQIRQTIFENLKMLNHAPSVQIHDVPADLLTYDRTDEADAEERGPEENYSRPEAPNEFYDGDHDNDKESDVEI
Sequence of HDAC3 (Q9Y618 395-489 partner limits assumed): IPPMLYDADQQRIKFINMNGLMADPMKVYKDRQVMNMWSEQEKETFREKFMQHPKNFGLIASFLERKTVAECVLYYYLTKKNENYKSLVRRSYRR
The subject of series [1] is human breast carcinoma MDA-MB231 cell line. Nature of the series: MTT cell viability assay, MDA-MB231. Particulars: for IC50 / viability at 100 µM: MDA-MB-231, 48 h; for IC50: read-out: IC50 (cell viability); for viability at 100 µM: read-out: Relative cell viability. The method, then: (§1) Cell viability assays were determined using Methyl Thiazolyl Tetrazolium (MTT) assay (Travigen, Gaithersburg, MD, USA). A total of 5 × 10^3 SW780 (human transitional urinary bladder cancer cell line) or 1 × 10^4 (human triple-negative breast cancer cell line MDA-MB231, American Type Culture Collection [ATCC], Rockville, MD, USA) in 100 µL of culture media were seeded to each well of 96-well culture plates. These cell lines were chosen based on previous work. The MDA-MB231 and SW780 cell lines were cultured in Dulbecco’s modified Eagle’s medium (DMEM) with 10% or 5% heat-inactivated fetal bovine serum, respectively, 100 U/mL penicillin, and 100 µg/mL streptomycin. Cultures were maintained in 5% CO2 at 37 °C and subcultured every 2–3 days. At 24 h after seeding, cells were treated with various concentrations of potential HDAC inhibiting compounds for 48 h (100 µM for initial screening, […], 1, 10, 100, 250, and 500 µM for the dose–response experiment). Subsequently, 10 µL of MTT reagent was added to each well and incubated for 4 h, followed by the addition of 100 µL of detergent reagent. The plate was incubated overnight. The reduced MTT reagent in cultures was measured at 570 nm by using an ELISA reader (Bio-Tek, Winooski, VT, USA). The IC50 for each compound was calculated from fitted nonlinear regression dose–response curves.
In general terms: Tetrazolium dyes change colour on reduction, which living cells bring about.

Series [2] has as its system transitional urothelial carcinoma SW780 cell line. Nature of the series: MTT cell viability assay, SW780. The conditions noted are these: Homo sapiens; for IC50 / viability at 100 µM: SW780, 48 h; for IC50: read-out: IC50 (cell viability); for viability at 100 µM: read-out: Relative cell viability. The method, then:
as §1

The mark [3] stands for this setting: read-out: IC50 (μM) for HDAC3, highest concentration 500 μM.
Setting [4] is: read-out: IC50 (μM) for HDAC4, highest concentration 500 μM.

Molecules are shown by their SMILES. Like-named read-outs stand apart in the source and are kept apart here.

Sequence of HDAC4 (P56524 whole entry): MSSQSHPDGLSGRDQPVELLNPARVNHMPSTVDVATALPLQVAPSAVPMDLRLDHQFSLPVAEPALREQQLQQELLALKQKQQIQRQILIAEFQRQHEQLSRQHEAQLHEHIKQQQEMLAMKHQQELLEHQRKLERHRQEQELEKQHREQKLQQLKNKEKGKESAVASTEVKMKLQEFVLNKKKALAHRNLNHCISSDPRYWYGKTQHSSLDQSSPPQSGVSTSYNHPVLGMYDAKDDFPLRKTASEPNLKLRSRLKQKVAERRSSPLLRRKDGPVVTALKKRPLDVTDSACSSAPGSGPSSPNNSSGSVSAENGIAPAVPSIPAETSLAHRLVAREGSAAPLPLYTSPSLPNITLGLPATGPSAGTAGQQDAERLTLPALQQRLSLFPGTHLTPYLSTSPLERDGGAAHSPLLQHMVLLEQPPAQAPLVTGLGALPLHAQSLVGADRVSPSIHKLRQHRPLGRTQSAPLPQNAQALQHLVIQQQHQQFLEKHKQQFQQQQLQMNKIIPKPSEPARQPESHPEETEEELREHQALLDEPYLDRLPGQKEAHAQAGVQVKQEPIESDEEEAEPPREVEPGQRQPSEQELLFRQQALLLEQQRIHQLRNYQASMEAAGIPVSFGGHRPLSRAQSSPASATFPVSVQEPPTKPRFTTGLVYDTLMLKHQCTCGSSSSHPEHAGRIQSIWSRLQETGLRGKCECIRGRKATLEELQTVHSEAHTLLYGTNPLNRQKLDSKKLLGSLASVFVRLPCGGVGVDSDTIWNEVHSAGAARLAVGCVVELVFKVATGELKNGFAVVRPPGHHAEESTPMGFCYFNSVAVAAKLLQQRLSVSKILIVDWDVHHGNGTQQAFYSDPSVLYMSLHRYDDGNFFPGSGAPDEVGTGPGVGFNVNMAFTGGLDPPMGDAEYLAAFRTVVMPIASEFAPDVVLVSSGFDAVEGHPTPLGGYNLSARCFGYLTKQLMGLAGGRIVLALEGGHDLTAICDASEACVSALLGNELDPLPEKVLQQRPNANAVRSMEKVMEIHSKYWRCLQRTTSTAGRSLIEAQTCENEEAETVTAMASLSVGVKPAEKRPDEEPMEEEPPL
Description for HDAC3: (§2) HDAC3 and HDAC4 activity assays were performed using fluorogenic assay kits obtained from BPS Bioscience (San Diego, CA, USA) by following the protocol that is supplied by the manufacturer. Briefly, purified enzyme (40 pg/μL HDAC3 or 1.2 pg/μL HDAC4) in a total of 50 μL buffer containing 0.1% BSA was incubated with substrate (20 μM for HDAC3 and 2 μM for HDAC4) at 37 °C for 30 min in a 96-well plate. A fluorescence developer (50 μL) was added and the plate was incubated at room temperature for a further 15 min. The activity of the enzymes in the absence and presence of compounds was measured on a BioTek Cytation 5 plate reader, exciting the samples at 350 nm and measuring emission at 450 nm. Compounds were prepared as 10 mM stocks in DMSO, diluted to 1 mM in 20 mM NaHEPES, 150 mM NaCl, pH 7.4 buffer, and were screened at 100 μM in the assays at least in duplicate. A positive control with 1% DMSO added in lieu of an inhibitor and a negative control without enzyme were also prepared in each assay plate. The negative control was subtracted from all fluorescence values, while the positive control was used as the reference for 100% activity of the enzyme.
Description for HDAC4: as §2

Turning to `COc1ccc2c(c1)NP(=S)(Oc1ccccc1)N2` (centres unmarked) [Compound 88402], at HDAC4, the IC50 (usually the point on the concentration scale where inhibition reaches its midpoint) was 100 ± 40 µM, the “relative percent activity of HDAC4 (activity retained)” value (from here on “relative percent activity of HDAC4”) is reported as under 40% and the “IC50 fold lower for HDAC4 than HDAC3” value was “at least 2 fold”. For the same molecule, at HDAC3, the IC50 came to 210 ± 60 µM and the “relative percent activity of HDAC3 (activity retained)” value (“relative percent activity of HDAC3” below) was 75%. The Relative cell viability result in series [1] (MDA-MB231, 100 µM compound, 48 h, untreated cells = 100%) is reported as “did not show activity”.
`NC(=S)NN=Cc1cc(-c2cccc(N)c2)ccn1` [Compound 195327]: the “relative percent activity of HDAC4” value on HDAC4 is reported as “unchanged”. At HDAC4 (highest concentration 500 μM), the “IC50 (μM) for HDAC4” value was “did not inhibit”. Also, the IC50 in series [2] was 89 ± 48 µM; on HDAC3, over 500 µM; in series [1] (Homo sapiens), 37 ± 17 µM. For the same molecule, the viability (in general, a per cent measure of how many cells are alive, often set against a control) at 100 µM in series [2] was under 50%; in series [1] (Homo sapiens), under 60%. The “decrease of HDAC3 activity” value at HDAC3 worked out at 80%. The “IC50 (μM) for HDAC3” value against HDAC3 (highest concentration 500 μM) was “no inhibition”.
With `CN(C)c1ncnc2c1ncn2-c1ccccc1` [Compound 34488], the “relative percent activity of HDAC4” value on HDAC4 is “unchanged”. Besides, the “decrease of HDAC3 activity” value at HDAC3 stood at 50%. Further, the IC50 on HDAC3 (setting [3]) was over 500 µM.
On to `CCOC(=O)C1C(=O)C(=O)N(C(C)C)C1C(=O)OCC` (centres unmarked) [Compound 55172], for which, on HDAC3 (setting [3]), the half-inhibitory concentration (IC50) is over 500 µM.
Turning to `CCCn1cnc2c(Sc3c([N+](=O)[O-])ncn3C)nc(N)nc21` [Compound 44584], at HDAC4, the “relative percent activity of HDAC4” value was “unchanged”. Further, the IC50 in series [2] was 213 ± 13 µM. Moreover, at HDAC3, the IC50 is over 500 µM and the “decrease of HDAC3 activity” value amounted to 60%. Besides, in series [1] (Homo sapiens), the IC50 stood at 137 ± 18 µM and the viability at 100 µM is under 60%.
Consider `O=C(CN1CCOCC1)N1CCOCC1` [Compound 51936], for which the half-inhibitory concentration (IC50) on HDAC4 (setting [4]) was 550 ± 350 µM; on HDAC3 (setting [3]), over 500 µM.
As to `COc1cc(C2NC(=O)C(C#N)=C(Nc3cccc(C)c3)S2)ccc1O` (centres unmarked) [Compound 319435], the 50% inhibitory concentration (IC50) against HDAC4 was 150 ± 50 µM; at HDAC3 it was over 500 µM. On HDAC4, the “IC50 fold lower for HDAC4 than HDAC3” value is listed as “at least 2 fold”.
`CC12CCC(C(NC(=S)NN)C1=O)C2(C)C` (centres unmarked) [Compound 36425]: the IC50 at HDAC4 (setting [4]) was 480 ± 260 µM; at HDAC3 (setting [3]) it was over 500 µM.
Regarding `O=C(Nc1ccc(C2=NCCN2)cc1)c1ccc(Cl)c(C(=O)Nc2ccc(C3=NCCN3)cc2)c1` [Compound 67436], at HDAC4, 47 ± 28 µM corresponded to half-maximal inhibition (IC50) and the “relative percent activity of HDAC4” value is on record as at most 40%. For the same molecule, in series [2], the IC50 amounted to 131 ± 26 µM and the viability at 100 µM was under 50%. On HDAC3, the half-inhibitory concentration (IC50) came out at 9.2 ± 5.2 µM and the “relative percent activity of HDAC3” value is listed as at most 40%. Moreover, the “HDAC3 IC50 relative to that for HDAC4” value at HDAC3 (selectivity HDAC3 over HDAC4 from IC50 values) is “five times lower”. In series [1] (Homo sapiens), the IC50 was 138 ± 23 µM and the viability at 100 µM was under 60%.
Turning to `O=[N+]([O-])c1cc(-c2cccnc2)n[nH]1` [Compound 4135], the concentration for half-maximal inhibition (IC50) on HDAC4 (setting [4]) is 410 ± 240 µM; on HDAC3 (setting [3]), over 500 µM.
On to `NS(=O)(=O)c1ccc(N=Nc2ccc(=O)[nH]c2O)cc1` [Compound 134199], for which, on HDAC4, the “relative percent activity of HDAC4” value is on record as at most 40%. Moreover, the 50% inhibitory concentration (IC50) was 33 ± 12 µM on HDAC4 (setting [4]) and 25 ± 7 µM at HDAC3 (setting [3]). Further, on HDAC3, the “relative percent activity of HDAC3” value is on record as at most 40%. The Relative cell viability result in series [1] (100 µM) is given as “little potency”.
On to `CCOC(=O)C(=CNc1ccccc1Cl)C(=O)OCC` [Compound 79887], for which the 50% inhibitory concentration (IC50) at HDAC3 (setting [3]) is over 500 µM.
`COc1cccc2c1cc([N+](=O)[O-])c1c(C(=O)O)cc3c(c12)OCO3` [Compound 11926]: the IC50 is 223 ± 49 µM in series [2], over 500 µM on HDAC3 and 126 ± 10 µM in series [1] (Homo sapiens). Moreover, the results for the viability at 100 µM in series [2] and in series [1] (Homo sapiens) were under 50% and under 60%, respectively. The viability at 500 µM is 45% in series [2] (SW780, read-out: cell viability) and 9% in series [1] (Homo sapiens, MDA-MB-231, read-out: cell viability).
With `CCOC(=O)C(=NO)C1=CSC2=NNC(C)(C)N12` [Compound 299968], the 50% inhibitory concentration (IC50) is 250 ± 170 µM on HDAC4, 300 ± 17 µM in series [2], over 500 µM against HDAC3 and 113 ± 19 µM in series [1] (Homo sapiens). In addition, the “IC50 fold lower for HDAC4 than HDAC3” value on HDAC4 is “at least 2 fold”. In addition, in series [1] (Homo sapiens), the viability at 100 µM is under 60%.

The values above are taken from PMC11279411, “Structure-Based Identification of Novel Histone Deacetylase 4 (HDAC4) Inhibitors” (Pharmaceuticals, 2024).
